# Laboratory results from US6225284A, “Somatostatin peptides” (Novartis AG, priority 1995, dated 2001).
# Numbered stars: 1 amine (or outer) side, 2 acyl side, 3 side chain; on linkers, the order of the positions; unused ones are H or OH. Square brackets hold non-standard residues; d marks the D form. Side chains are listed from the residue outwards. Peptide text beside a SMILES is read from it. * marks the point of attachment. Ethylenediamine = C(CN[*:2])N[*:1]; cisHyp = O=C(O)[C@@H]1C[C@H](O)CN1; Hyp = O=C(O)[C@@H]1C[C@@H](O)CN1; NHCH2CH2NMe2 = CN(C)CCN*; CO = O=C([*:1])[*:2]; Bn = c1ccc(C*)cc1
# Experiments:
# hSST-1 = hSST-1 (Homo sapiens, UniProt P30872); experiment: competition binding assay, membranes of CHO cells expressing hSST-1, [125I-Tyr3]-octreotide; conditions: competition with [125I-Tyr3]-octreotide; read-out: IC50 (nM) hSSTR-1
# hSST-1, sequence (P30872 whole entry): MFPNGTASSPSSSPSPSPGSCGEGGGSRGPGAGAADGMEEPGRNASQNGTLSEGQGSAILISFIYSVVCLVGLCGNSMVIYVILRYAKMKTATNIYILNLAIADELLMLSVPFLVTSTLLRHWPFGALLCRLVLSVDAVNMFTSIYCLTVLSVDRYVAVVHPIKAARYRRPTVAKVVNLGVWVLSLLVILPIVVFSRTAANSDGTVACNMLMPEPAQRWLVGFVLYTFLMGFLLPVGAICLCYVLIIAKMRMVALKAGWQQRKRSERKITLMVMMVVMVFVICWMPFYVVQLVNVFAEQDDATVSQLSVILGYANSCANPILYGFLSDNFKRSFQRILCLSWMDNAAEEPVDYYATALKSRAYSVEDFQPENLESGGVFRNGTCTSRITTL
# Experimental: (§1) The binding assays may be carried out as disclosed hereunder using membranes prepared from hSST-1, hSST-2, hSST-3, hSST-4 or hSST-5 selective cell lines, e.g. CHO cells stably expressing hSST-1, hSST-2, hSST-3, hSST-4 or hSST-5.
# (§2) Brain or pituitary tissue is used in which hSST are visualized with e.g. in situ hybridization and/or receptor autoradiography. Membranes are prepared according to known methods, e.g. as disclosed by J C. Reubi et al. in J. Clin. Endocrinol. Metab. 1987, 65, 1127-1137. Membranes prepared from hSST selective cell lines, e.g. CHO cells stably expressing hSST-1 or hSST-2 or hSST-3 or hSST-4 or hSST-5 are incubated in triplicate in a total volume of 300 μl at 22° C. for 30 min with increasing concentrations of [^125 I-Tyr^3 ]-octreotide in 10 mmol/l Hepes buffer (pH 7.6) containing 0.5% BSA. The incubation is terminated by rapid filtration through Whatman GF/B glass fiber filters, which are then washed four times each with 5 ml ice cold 10 mmol/l Tris/150 mmol/l NaCl. The filters are counted in a LKB counter at 78% counting efficiency. Specific binding is total binding minus non-specific binding in the presence of 1 μmol/l somatostatin-14. The experiments are carried out in triplicate. The affinity constant (KD) and number of binding sites are calculated from Scatchard plots of the data.
# (§3) The COMPOUNDS OF THE INVENTION, e.g. as indicated above, respectively, have in the above binding assays towards hsST-1, hSST-2, hSST-3, hSST-4 and/or hSST-5 an IC50 in the nMolar range, preferably an IC50 of from 0.1 to 10 nM (IC50 =concentration for half-maximal inhibition in a competition binding assay using [^125 I-Tyr^3 ]-octreotide the same radioligand as indicated above).
# hSST-3 = hSST-3 (Homo sapiens, UniProt P32745); experiment: competition binding assay, membranes of CHO cells expressing hSST-3, [125I-Tyr3]-octreotide; conditions: competition with [125I-Tyr3]-octreotide; read-out: IC50 (nM) hSSTR-3
# hSST-3, sequence (P32745 whole entry): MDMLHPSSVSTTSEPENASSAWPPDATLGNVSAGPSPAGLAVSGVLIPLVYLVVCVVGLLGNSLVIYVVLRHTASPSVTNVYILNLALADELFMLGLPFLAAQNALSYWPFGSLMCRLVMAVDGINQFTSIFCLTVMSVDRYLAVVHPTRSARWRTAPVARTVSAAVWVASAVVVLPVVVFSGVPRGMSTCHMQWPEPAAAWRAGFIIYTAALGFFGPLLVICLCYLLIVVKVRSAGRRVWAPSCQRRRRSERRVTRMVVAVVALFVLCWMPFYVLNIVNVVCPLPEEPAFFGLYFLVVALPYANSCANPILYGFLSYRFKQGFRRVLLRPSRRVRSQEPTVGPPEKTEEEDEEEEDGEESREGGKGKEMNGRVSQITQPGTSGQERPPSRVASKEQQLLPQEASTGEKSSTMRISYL
# Experimental: as §1, §2, §3
# hSST-2 = hSST-2 (Homo sapiens, UniProt P30874); experiment: competition binding assay, membranes of CHO cells expressing hSST-2, [125I-Tyr3]-octreotide; conditions: competition with [125I-Tyr3]-octreotide; read-out: IC50 (nM) hSSTR-2
# hSST-2, sequence (P30874 whole entry): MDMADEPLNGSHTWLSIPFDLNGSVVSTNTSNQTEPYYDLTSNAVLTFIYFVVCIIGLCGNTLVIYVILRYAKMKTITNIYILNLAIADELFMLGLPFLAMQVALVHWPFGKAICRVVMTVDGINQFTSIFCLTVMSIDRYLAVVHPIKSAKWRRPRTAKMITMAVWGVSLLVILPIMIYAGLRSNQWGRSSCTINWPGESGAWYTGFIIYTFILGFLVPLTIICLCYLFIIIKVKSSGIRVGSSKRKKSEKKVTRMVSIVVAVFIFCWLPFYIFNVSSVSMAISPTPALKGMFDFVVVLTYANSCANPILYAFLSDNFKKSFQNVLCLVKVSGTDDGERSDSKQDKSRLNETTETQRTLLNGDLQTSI
# Experimental: as §1, §2, §3
# hSST-5 = hSST-5 (Homo sapiens, UniProt P35346); experiment: competition binding assay, membranes of CHO cells expressing hSST-5, [125I-Tyr3]-octreotide; conditions: competition with [125I-Tyr3]-octreotide; read-out: IC50 (nM) hSSTR-5
# hSST-5, sequence (P35346 whole entry): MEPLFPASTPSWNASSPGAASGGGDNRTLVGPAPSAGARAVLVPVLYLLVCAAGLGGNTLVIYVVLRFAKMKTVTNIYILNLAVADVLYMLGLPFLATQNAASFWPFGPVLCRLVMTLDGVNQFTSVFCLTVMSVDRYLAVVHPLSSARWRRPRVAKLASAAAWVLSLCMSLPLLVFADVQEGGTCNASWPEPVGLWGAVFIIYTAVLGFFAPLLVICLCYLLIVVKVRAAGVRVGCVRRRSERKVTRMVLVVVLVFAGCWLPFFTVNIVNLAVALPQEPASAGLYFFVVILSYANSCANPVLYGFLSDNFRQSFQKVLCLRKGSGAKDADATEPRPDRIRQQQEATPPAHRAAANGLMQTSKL
# Experimental: as §1, §2, §3
# hSST-4 = hSST-4 (Homo sapiens, UniProt P31391); experiment: competition binding assay, membranes of CHO cells expressing hSST-4, [125I-Tyr3]-octreotide; conditions: competition with [125I-Tyr3]-octreotide; read-out: IC50 (nM) hSSTR-4
# hSST-4, sequence (P31391 whole entry): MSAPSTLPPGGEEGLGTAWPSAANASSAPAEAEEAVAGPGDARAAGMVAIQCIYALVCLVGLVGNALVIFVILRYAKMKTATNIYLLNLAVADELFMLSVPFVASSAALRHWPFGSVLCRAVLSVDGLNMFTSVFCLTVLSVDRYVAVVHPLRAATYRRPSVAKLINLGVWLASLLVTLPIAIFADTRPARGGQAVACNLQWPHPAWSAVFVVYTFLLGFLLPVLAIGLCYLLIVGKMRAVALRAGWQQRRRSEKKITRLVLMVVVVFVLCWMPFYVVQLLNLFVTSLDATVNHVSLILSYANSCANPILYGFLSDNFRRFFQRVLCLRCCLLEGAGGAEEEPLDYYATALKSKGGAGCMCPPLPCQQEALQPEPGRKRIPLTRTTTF
# [1] = system: AR42J rat pancreatic tumor cell line; experiment: AR42J proliferation test; format: cell-based; conditions: exposure 2 to 5 days; ± SE; read-out: IC50, inhibition of proliferation of AR42J tumor cells
# Experimental: The AR42J rat pancreatic tumor cell line is derived from an azaserine-induced exocrine pancreatic tumor (Jessop and Hay, 1980). The absence of mycoplasma is regularly checked using bisbenzimide staining and the GenProbe hybridization assay (San Diego, Calif.). Cultures are propagated in DMEM supplemented with 10% fetal calf serum (FCS) at 5% CO2. Cells are grown in the absence of antibiotics or antifungal agents. Subconfluent AR42J cells are trypsinized, diluted in DMEM +2.5% FCS and seeded in uncoated 96-well plates. After a 48-hr incubation period (Day 0), the number of cells in a separate control plate is determined both by counting cells in a Coulter counter and by the SRB calorimetric assay. The cells are then exposed to the compound to be tested for 2 to 5 days at various concentrations and then counted.
# [2] = system: GH release from cultured pituitary cells; experiment: inhibition of GH release in vitro from cultured pituitary cells; format: cell-based; conditions: rat pituitary cells, 3×10^-10 M growth hormone releasing factor, two to four hours
# Experimental: Furthermore, the COMPOUNDS OF THE INVENTION show GH-release inhibiting activity as indicated by the inhibition of GH release in vitro from cultured pituitary cells. Anterior pituitary glands from adult male rats are cut into small pieces and dispersed using 0.1% trypsin in 20 mM HEPES buffer. The dispersed cells are cultured for four days in MEM (Gibco) supplemented with 5% fetal calf serum, 5% horse serum, 1 mM NaHCO3, 2.5 nM dexamethasone, 2.5 mg/ml insulin and 20 U/ml Pen/Strep. On the day of the experiment the attached cells are washed two times with Krebs-Ringer medium buffered with 20 mM HEPES and supplemented with 5 mM glucose and 0.2% BSA. Subsequently the cells are incubated for two to four hours with the test compound in the presence of 3×10^-10 M growth hormone releasing factor. The amount of growth hormone released into the medium is measured by RIA.
SMILES,IC50 (hSST-1) [nM],IC50 (hSST-3) [nM],IC50 (hSST-2) [nM],IC50 (hSST-5) [nM],IC50 (hSST-4) [nM],IC50 [1] [nM],IC50 [2] [nM]
"NCCCC[C@@H]1NC(=O)[C@@H](Cc2c[nH]c3ccccc23)NC(=O)[C@H](Cc2ccccc2)NC(=O)[C@@H]2C[C@@H](O)CN2C(=O)[C@H](Cc2ccccc2)NC(=O)[C@H](Cc2ccc(OCc3ccccc3)cc2)NC1=O [Example 1, Cyclo [HyPro-Phe-DTrp-Lys-Tyr(Bzl)-Phe]] (cyclo(F[Hyp]F[dW]KY(Bn)))",63,1.9,0.94,0.35,320,–,–
"NCCCC[C@@H]1NC(=O)[C@@H](Cc2c[nH]c3ccccc23)NC(=O)[C@H](Cc2ccccc2)NC(=O)[C@@H]2C[C@@H](OC(=O)NCCN)CN2C(=O)[C@H](Cc2ccccc2)NC(=O)[C@H](Cc2ccc(OCc3ccccc3)cc2)NC1=O [Example 2, Cyclo[{4-(NH2 --C2 H4 --NH--CO--O--)Pro}-Phe-DTrp-Lys-Tyr(Bzl)-Phe]] (cyclo(F[Hyp]([CO-Ethylenediamine])F[dW]KY(Bn)))",4.6,0.93,2.3,0.46,490,0.7 ± 0.3,0.4

# Further compounds by falling IC50 (hSST-1), results first:
IC50 (hSST-1) [nM],IC50 (hSST-3) [nM],IC50 (hSST-2) [nM],IC50 (hSST-5) [nM],SMILES,IC50 (hSST-4) [nM],IC50 [1] [nM],IC50 [2] [nM]
3.8,57,0.13,2,NCCCC[C@@H]1NC(=O)[C@@H](Cc2c[nH]c3ccccc23)NC(=O)[C@H](Cc2ccccc2)NC(=O)[C@@H]2C[C@H](OC(=O)NCCN)CN2C(=O)[C@H](Cc2ccccc2)NC(=O)[C@H](COCc2ccccc2)NC1=O [Example 32] (cyclo(F[cisHyp]([CO-Ethylenediamine])F[dW]KS(Bn))),–,–,–
0.6,2.4,1.3,4.5,CN(C)CCNC(=O)O[C@@H]1C[C@H]2C(=O)N[C@@H](Cc3ccccc3)C(=O)N[C@H](Cc3c[nH]c4ccccc34)C(=O)N[C@@H](CCCCN)C(=O)N[C@@H](COCc3ccccc3)C(=O)N[C@@H](Cc3ccccc3)C(=O)N2C1 [Example 36] (cyclo(F[Hyp]([CO-NHCH2CH2NMe2])F[dW]KS(Bn))),–,–,–
0.5,3.9,0.8,2.9,NCCCC[C@@H]1NC(=O)[C@@H](Cc2c[nH]c3ccccc23)NC(=O)[C@H](Cc2ccccc2)NC(=O)[C@@H]2C[C@@H](OC(=O)NCCN)CN2C(=O)[C@H](Cc2ccccc2)NC(=O)[C@H](COCc2ccccc2)NC1=O [Example 31] (cyclo(F[Hyp]([CO-Ethylenediamine])F[dW]KS(Bn))),–,–,–
